In patent US5952312A, “NADH and NADPH therapeutic agents for nasal, sublingual, rectal and dermal administration” (Birkmayer Pharmaceuticals, Inc., priority 1998, dated 1999):
Entries after “also recorded” stand apart in the source; their conditions may differ. Where a name gives a salt, the structure may show the parent alone.

How the values were obtained:
cell degeneration = conditions: presence of uncoupled mitochondria; cited from earlier work
[1] = oral form; cited from earlier work
[2] = shelf/storage stability of pure substance and formulations; assay type: physicochemical; conditions: protected from light
Text: (§1) Although NADH and/or NADPH may be used by themselves in pure form (they are quite stable in compressed form when protected from light), it is preferred that they be combined in a galenic formulation with a stabilizer, and most preferably with both a stabilizer and a filler. The use of a stabilizer is preferred to prevent oxidation of NADH and NADPH to NAD^+ and […] , respectively. Although, NADH and NADPH are active for the variety of therapeutic effects discussed above, NAD^+ and NADP^+ are ineffective. Therefore, oxidation of NADH and NADPH must be prevented during storage to provide for a reasonable shelf life. […] NADH/NADPH formulations containing such stabilizers are stable for up to two years. Other various stabilizers will become apparent tc those skilled in the art.
In general, a preferred formulation will include about 3 to 10% by weight NADH and/or NADPH; about 1 to 10% by weight stabilizer; and the remainder as filler. Such a formulation, after being compressed into a pill and coated, is stable for over 24 months.

mitochondrial enzymes = assay: stimulation of enzymes essential for the energy production of skin cells; assay type: cell-based; conditions: topical
Text: In accordance with the invention, an NADH and/or NADPH composition is provided for topical application to the skin. […] The enzymes stimulated are principally the mitochondrial enzymes. The NADH and/or NADPH can be incorporated into a skin compatible cream, lotion or cosmetic, or can be combined with micelles of lipophilic substances. Liposomes are preferred vesicles for delivering the greatest dosages of NADH and/or NADPH into the skin.

Alzheimer's disease [3] = assay: nasal administration in Alzheimer's disease; assay type: in vivo, human
Text: (§2) However, I have now discovered that NADH and/or NADPH is also effective when administered topically (as described above for prolonging the life of skin cells and reducing wrinkles), sublingually, rectally and nasally.

mitochondria = assay: stimulation of mitochondrial energy production of skin cells; assay type: cell-based
Text: (§3) The NADH encapsulated by the liposomes is simply applied topically to the skin, and is rubbed into the skin to ensure penetration.

Parkinson's disease [4] = conditions: intravenous, patients with Parkinson's disease; cited from earlier work
[5] = compatibility with lactose; assay type: physicochemical; conditions: lactose as filler
Text: Suitable fillers for use with NADH and NADPH include: mannitol, microcrystalline cellulose, carboxymethyl cellulose; and dibasic calcium phosphate. Other suitable fillers will become apparent to those skilled in the art.

[6] = rectal administration (suppositories); assay type: in vivo
Procedure: It has also been discovered that good results are obtained when NADH is administered rectally. […] NADH may be administered rectally in the form of suppositories. A suitable suppository formulations are: […]

Parkinson's disease [7] = assay: nasal administration in Parkinson's disease; assay type: in vivo, human
Text: as §2

Parkinsonian patients = assay: motor system in Parkinsonian patients; assay type: in vivo, human; conditions: sublingual, rectal or nasal; single 5 to 500 mg, daily 5 to 1,500 mg
Procedure: A suitable single dose of NADH and/or NADPH for sublingual, rectal or nasal application is 5 to 500 mg, preferably 25 to 100 mg. A suitable daily dose is 5 to 1,500 mg, preferably 25 to 300 mg.

Parkinson's disease [8] = conditions: earlier patents; cited from earlier work
[9] = sublingual administration; assay type: in vivo
Text: The NADH is merely placed underneath the tongue and resorbed. Unlike the oral form of NADH described in U.S. Pat. No. 5,332,727, a sublingual form should not be coated with an acid stable protective coating.

[10] = dissolution in fluids secreted by the olfactory mucous membrane; assay type: physicochemical; conditions: fluids of the olfactory epithelium
Procedure: Thus, in accordance with the invention, the NADH may be administered to the nasal cavity of a patient afflicted with Parkinson's disease, Alzheimer's disease or mental depression. The NADH may be applied alone or in combination with other substances, for example, a pharmaceutically acceptable carrier or an agent that facilitates the transfer of the NADH through the nasal mucosa. The NADH is administered intranasally as a powder, spray, gel, ointment, infusion, injection or nose drops. The NADH is delivered to the nasal cavity. It is preferred that the NADH be delivered to the olfactory area in the upper third of the nasal cavity, and particularly to the olfactory neuroepithelium in order to promote transport of the NADH into the peripheral olfactory neurons rather than the capillaries within the respiratory epithelium. It is preferred that the transport of NADH to the brain be by means of the nervous system rather than the circulatory system so that the blood-brain barrier from the bloodstream into the brain is circumvented. However, good results can also be obtained through the bloodstream. […] The NADH may be combined with a carrier or other substance that fosters dissolution within nasal secretions, such as the ganglioside GM-1 or the phospolipid phosphatidylserine, or emulsifiers such as polysorbate 80. […]

[11] = test system: skin proliferation layer cells; assay type: in vivo; conditions: topical; for penetration of cutis and entry into cells of the skin proliferation layer: radiolabelled
Alzheimer's disease [12] = conditions: orally or intravenously; cited from earlier work
skin cells = assay: topical application: skin cell life, water uptake, wrinkles; assay type: in vivo
Text: as §3

[13] = after intravenous application; cited from earlier work
stability against pH = assay type: physicochemical
Text: The NADH may be entrapped in the liposomes in either of two ways. The NADH may be dissolved in the organic solvent together with the lipid(s) and the detergent(s) during the liposome formation. By this procedure, the NADH will be present in the lipid film before the film is solubilized. Alternatively, the NADH may be entrapped by dissolving it in the aqueous solvent (preferably buffered) before the lipid film is exposed to the aqueous solvent. It is important that the aqueous solution of NADH not have a pH below 7 as NADH (and NADPH) are very unstable at pHs below 7. This second method of entrapment (i.e., dissolving NADH in aqueous solution) is preferred.

[14] = nasal absorption and transport to the brain; assay type: in vivo; conditions: inhaled through nasal passages
Text: For a powder spray, the NADH is simply ground into a fine powder and atomized from a spray bottle. Preferably, pure NADH is used for the powder spray, however, it can be used in conjunction with a filler, such as mannitol, as described below.

[15] = therapeutic activity of the oxidized forms; conditions: in vivo
Text: as §1

Row | SMILES | absorption by the intestine [1] | stability in pure compressed form [2] | stimulation of enzymes essential for energy production of skin cells (mitochondrial enzymes) | distribution to mitochondria and stimulation of energy production of the cell (mitochondria) | beneficial effect (Parkinson's disease [4]) | duration of beneficial effect (Parkinson's disease [4]) | effect on motor system (Parkinsonian patients) | usefulness/effectiveness in Parkinson's disease (Parkinson's disease [8]) | effectiveness when administered sublingually [9] | dissolution in nasal secretions [10] | absorption by the skin and uptake by the skin cells [11] | entry into cells of the proliferation layer, not encapsulated by liposomes [11] | penetration of cutis and entry into cells of the skin proliferation layer [11] | effectiveness in Alzheimer's disease (Alzheimer's disease [12]) | cell life (skin cells) | water uptake by the cell / wrinkle formation (skin cells) | degradation in plasma and blood [13] | stability at pH below 7 (stability against pH) | therapeutic effectiveness of oxidized forms [15] | also measured
1 | C[C@@H](O)CC(=O)O [D(-)-β-hydroxybutyrate sodium salt] | – | – | – | – | – | – | – | – | – | – | – | – | – | – | – | – | – | – | – | inhibition of cell degeneration (cell degeneration): inhibited cell degeneration resulting from the presence of uncoupled mitochondria in a dose dependent manner
2 | NC(=O)C1=CN([C@@H]2O[C@H](COP(=O)(O)OP(=O)(O)OC[C@H]3O[C@@H](n4cnc5c(N)ncnc54)[C@H](O)[C@@H]3O)[C@@H](O)[C@H]2O)C=CC1 [NADH, nicotinamide adenine dinucleotide in its reduced form] | absorbed by the intestine | quite stable | stimulate certain enzymes which are essential for the energy production of the cells | goes to the mitochondria where it stimulates the energy production of the cell | remarkable beneficial effect | at least 24 hours | improve the motor system in Parkinsonian patients | effective in the treatment of Parkinson's disease; also recorded: useful in the treatment of Parkinson's Disease | effective when administered sublingually | capable of at least partially dissolving in the fluids | absorbed by the skin and penetrate the cutis to be taken up by the skin cells | enters the cells of the proliferation layer | crosses the cutis and enters the cells which comprise the skin proliferation layer | effective in the treatment of Parkinson's disease and Alzheimer's disease | prolonged cell life | increased water uptake by the cell, thereby reducing wrinkle formation | not rapidly degraded in the plasma and blood | very unstable | – | effectiveness by nasal application in Alzheimer's disease (Alzheimer's disease [3]): particularly effective in the treatment of Alzheimer's disease; speed of results, nasal (Alzheimer's disease [3]): very fast results; reaction with lactose [5]: reacts with NADH; results when administered rectally [6]: good results; speed of results, rectal ([6]; compared with nasal or sublingual): not obtained as quickly as in the case of nasal or sublingual administration; effectiveness by nasal application in Parkinson's disease (Parkinson's disease [7]; nasal): particularly effective in the treatment of Alzheimer's disease and Parkinson's disease; therapeutic effects, nasal vs oral form (Parkinson's disease [7]; nasal powder spray): same therapeutic effects as the oral form; speed of results, sublingual [9]: very fast results; nasal absorption and transport to the brain [14]: travels directly to the brain, circumventing the blood-brain barrier; also recorded: absorbed by the mucosa of the nose and travels to the brain through the olfactory neural pathway
3 | NC(=O)C1=CN([C@@H]2O[C@H](COP(=O)(O)OP(=O)(O)OC[C@H]3O[C@@H](n4cnc5c(N)ncnc54)[C@H](OP(=O)(O)O)[C@@H]3O)[C@@H](O)[C@H]2O)C=CC1 [NADPH, nicotinamide adenine phosphate dinucleotide in its reduced form] | absorbed by the intestine | quite stable | stimulate certain enzymes which are essential for the energy production of the cells | goes to the mitochondria where it stimulates the energy production of the cell | remarkable beneficial effect | at least 24 hours | improve the motor system in Parkinsonian patients | effective in the treatment of Parkinson's disease; also recorded: useful in the treatment of Parkinson's Disease | effective when administered sublingually | capable of at least partially dissolving in the fluids | absorbed by the skin and penetrate the cutis to be taken up by the skin cells | enters the cells of the proliferation layer | crosses the cutis and enters the cells which comprise the skin proliferation layer | effective in the treatment of Parkinson's disease and Alzheimer's disease | prolonged cell life | increased water uptake by the cell, thereby reducing wrinkle formation | not rapidly degraded in the plasma and blood | very unstable | – | –
4 | NC(=O)c1ccc[n+]([C@@H]2O[C@H](COP(=O)([O-])OP(=O)(O)OC[C@H]3O[C@@H](n4cnc5c(N)ncnc54)[C@H](OP(=O)(O)O)[C@@H]3O)[C@@H](O)[C@H]2O)c1 [NADP^+] | – | – | – | – | – | – | – | – | – | – | – | – | – | – | – | – | – | – | ineffective | –
5 | NC(=O)c1ccc[n+]([C@@H]2O[C@H](COP(=O)([O-])OP(=O)(O)OC[C@H]3O[C@@H](n4cnc5c(N)ncnc54)[C@H](O)[C@@H]3O)[C@@H](O)[C@H]2O)c1 [NAD^+] | – | – | – | – | – | – | – | – | – | – | – | – | – | – | – | – | – | – | ineffective | –
